ChEMBL document CHEMBL1140152, “Modified peptides as potent inhibitors of the postsynaptic density-95/N-methyl-D-aspartate receptor interaction” (J Med Chem, 2008)
The source made the active and inactive calls. The rule behind the calls is not given here. Where a SMILES comes first, the peptide text is derived from it. [ ]: non-standard residue; d: D form. NMeV = CN[C@H](C(=O)O)C(C)C; NMeS = CN[C@@H](CO)C(=O)O; hSer = N[C@@H](CCO)C(=O)O; Abu = CC[C@H](N)C(=O)O; Aib = CC(C)(N)C(=O)O

How the values were obtained:
[1] = target: T1, Disks large homolog 4 (Homo sapiens, UniProt P78352); test: Binding affinity to human PSD95 domain PDZ1 expressed in Escherichia coli BL21-DE3 by fluorescence polarization assay
Target sequence in this assay (P78352 whole entry, the tested form may be a part): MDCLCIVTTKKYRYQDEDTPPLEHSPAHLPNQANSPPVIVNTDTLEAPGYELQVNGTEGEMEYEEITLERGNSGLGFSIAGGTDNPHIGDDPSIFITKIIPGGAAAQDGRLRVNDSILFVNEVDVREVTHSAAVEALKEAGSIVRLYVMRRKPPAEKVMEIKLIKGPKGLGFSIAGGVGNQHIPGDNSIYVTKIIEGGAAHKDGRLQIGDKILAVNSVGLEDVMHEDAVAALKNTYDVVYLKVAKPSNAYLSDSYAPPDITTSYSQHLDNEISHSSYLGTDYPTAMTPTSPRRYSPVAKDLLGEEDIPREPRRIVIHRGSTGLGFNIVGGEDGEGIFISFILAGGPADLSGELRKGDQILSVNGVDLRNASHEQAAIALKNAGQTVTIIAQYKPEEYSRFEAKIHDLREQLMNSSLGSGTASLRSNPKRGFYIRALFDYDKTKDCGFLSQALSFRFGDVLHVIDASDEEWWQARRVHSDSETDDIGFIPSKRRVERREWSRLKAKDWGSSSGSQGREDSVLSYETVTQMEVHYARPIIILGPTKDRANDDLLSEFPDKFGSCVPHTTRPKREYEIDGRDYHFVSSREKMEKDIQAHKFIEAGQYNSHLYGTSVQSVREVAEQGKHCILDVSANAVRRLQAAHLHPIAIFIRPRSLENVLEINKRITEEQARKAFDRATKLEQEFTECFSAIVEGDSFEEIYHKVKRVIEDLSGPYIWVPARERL

[2] = target: T1, Disks large homolog 4; test: Binding affinity to human PSD95 domain PDZ1 expressed in Escherichia coli BL21-DE3 by fluorescence polarization assay
Target sequence in this assay (P78352 whole entry, looked up, the tested form may be a part): as the sequence (P78352 whole entry, the tested form may be a part) above

[3] = target: T1, Disks large homolog 4; test: Binding affinity to human PSD95 domain PDZ2 expressed in Escherichia coli BL21-DE3 by fluorescence polarization assay
Target sequence in this assay (P78352 whole entry, looked up, the tested form may be a part): as the sequence (P78352 whole entry, the tested form may be a part) above

[4] = target: T1, Disks large homolog 4; test: Binding affinity to human PSD95 domain PDZ2 expressed in Escherichia coli BL21-DE3 by fluorescence polarization assay
Target sequence in this assay (P78352 whole entry, the tested form may be a part): as above

[5] = target: T1, Disks large homolog 4; test: Binding affinity to human PSD95 domain PDZ3 expressed in Escherichia coli BL21-DE3 by fluorescence polarization assay

Compound | Activity [2] | Activity [3] | other results
CC(C)[C@H](NC(=O)[C@H](C)NC(=O)[C@@H](NC(=O)[C@H](CCC(=O)O)NCCc1ccc2ccccc2c1)[C@@H](C)O)C(=O)O | – | – | Ki [1]: 1000 nM
CC(C)[C@@H](C(=O)O)N(C)C(=O)[C@H](CC(=O)O)NC(=O)[C@H](CO)NC(=O)[C@@H](N)CCC(=O)O (H-ESD[NMeV]-OH) | inactive | inactive | –
CC(C)[C@H](NC(=O)[C@H](CC(=O)O)NC(=O)[C@@H](NC(=O)[C@@H](N)CCC(=O)O)C(C)(C)CO)C(=O)O | inactive | inactive | –
CN[C@@H](CCC(=O)O)C(=O)N[C@H](C(=O)N[C@@H](C)C(=O)N[C@H](C(=O)O)C(C)C)[C@@H](C)O | – | – | Ki [1]: 11000 nM
CC(C)[C@H](NC(=O)[C@H](C)NC(=O)[C@@H](NC(=O)[C@H](CCC(=O)O)NCCCc1ccc(F)c(F)c1)[C@@H](C)O)C(=O)O | – | – | Ki [4]: 1000 nM
CC(C)[C@H](NC(=O)[C@H](C)NC(=O)[C@@H](NC(=O)[C@H](CCC(=O)O)NCC1CCCCC1)[C@@H](C)O)C(=O)O | – | – | Ki [1]: 1000 nM
H-KSGYEKLSSIESDV-OH | – | – | Activity [5]: inactive
CC(C)[C@H](NC(=O)[C@H](C)NC(=O)[C@@H](NC(=O)[C@H](CCC(=O)O)NCCC1CCCCC1)[C@@H](C)O)C(=O)O | – | – | Ki [5]: 11000 nM
CC[C@H](C)[C@H](NC(=O)[C@H](CO)NC(=O)[C@H](CO)NC(=O)[C@H](CC(C)C)NC(=O)[C@H](CCCCN)NC(=O)[C@H](CCCNC(=N)N)NC(=O)[C@H](CCCNC(=N)N)NC(=O)[C@H](CCCNC(=N)N)NC(=O)[C@H](CCC(N)=O)NC(=O)[C@H](CCCNC(=N)N)NC(=O)[C@H](CCCNC(=N)N)NC(=O)[C@H](CCCCN)NC(=O)[C@H](CCCCN)NC(=O)[C@H](CCCNC(=N)N)NC(=O)CNC(=O)[C@@H](N)Cc1ccc(O)cc1)C(=O)N[C@@H](CCC(=O)O)C(=O)N[C@@H](CO)C(=O)N[C@@H](CC(=O)O)C(=O)N[C@H](C(=O)O)C(C)C | – | – | Activity [5]: inactive
CC(C)[C@H](NC(=O)[C@H](CC(=O)O)NC(=O)[C@@H](NC(=O)[C@@H](N)CCC(=O)O)[C@H](C)CO)C(=O)O | inactive | inactive | –

The next lines start with results.

Activity [2] | Activity [3] | Compound | other results
inactive | inactive | CC(C)[C@H](NC(=O)[C@H](CC(=O)O)NC(=O)[C@H](CCO)NC(=O)[C@@H](N)CCC(=O)O)C(=O)O (H-E[hSer]DV-OH) | –
– | inactive | CC[C@H](NC(=O)[C@H](CC(=O)O)NC(=O)[C@H](CO)NC(=O)[C@@H](N)CCC(=O)O)C(=O)O (H-ESD[Abu]-OH) | –
inactive | inactive | CC(C)(NC(=O)[C@H](CC(=O)O)NC(=O)[C@H](CO)NC(=O)[C@@H](N)CCC(=O)O)C(=O)O (H-ESD[Aib]-OH) | –
inactive | inactive | CC(C)[C@H](NC(=O)[C@H](CC(=O)O)NC(=O)[C@H](CO)N(C)C(=O)[C@@H](N)CCC(=O)O)C(=O)O (H-E[NMeS]DV-OH) | –
